Source: patent publication US12714691B2, “Method of treating triple-negative breast cancer” (THE UNITED STATES OF AMERICA, AS REPRESENTED BY THE …, priority 2018, dated 2026)

Assays:
GDSC cell line panel = GDSC cell line panel drug activity (IC50, Cell Titer Glo measurement of ATP); assay type: cell-based; settings: GDSC triple negative breast cancer lines (21); p<7E-10
Protocol: (§1) To determine reproducibility across institutes and assay types, we tested a selected set of NCI-60-screened compounds for activity in the GDSC cell line panel (Table 1). Drug data reproducibility may be affected by potential sources of data divergence such as assay type and duration for drug treatment. Noting that the GDSC and the NCI/DTP used different assays to determine their IC50 values (Cell Titer Glo measurements of ATP at 72 hours post-treatment versus sulforhodamine B measurement of total protein at 48 hours post-treatment), we compared 19 drugs referenced by their NSCs (National Service Center identifiers) and associated with a range of mechanisms of action types. The drugs with the strongest correlations were oxyphenisatin acetate (Acetalax) (FIG. 5a, R=0.80, p=1.1×10^−10, N=43) and bisacodyl (FIG. 5b, R=0.84, p=9.0×10^−13, N=44). These FDA-approved laxatives lacked pre-existing data in the CTRP, CCLE and GDSC.
In this work, the drugs were assessed in a different institution using a different assay using 1,080 cell lines, including 21 triple negative breast cancers (FIG. 8A, B). […]
DETERMINATION OF PROSPECTIVE TRIPLE NEGATIVE BREAST CANCERS. Transcript expression levels of ERBB2, ESR1, ESR2 and PGR (HER2, estrogen receptor and progesterone receptor) were assessed by GDSC using the Affymetrix Human Genome U219 Array and accessed in CellMinerCDB. […]

NCI-60 cell lines = test: NCI-60 compound activity (z score of GI50, sulforhodamine B total protein assay, DTP); assay type: cell-based; settings: for Activity (Z score) against breast cancer cell lines: 4 of 5 tested breast cancer cell lines (MCF7, HS578T, BT549, T47D); for Anticancer activity compared with all available (~178) FDA-approved drugs: HS 578T and BT-549 cell lines, FIG. 7B; for Activity (Z score) pattern against NCI-60 cell lines: certain breast cancer, colorectal cancer and ovarian cancer cell lines, FIG. 6; for Activity (Z score) against ovarian cancer cell lines: four of seven ovarian cancer cell lines (OVCAR-3, OVCAR-4, OVCAR-8, NCI-ADR-RES); for Effectiveness compared with 13 approved breast cancer drugs: triple negative breast cancer cell lines HS 578T and BT-549 (two of three NCI-60 TNBC lines), FIG. 7A; for Activity (Z score) against colorectal cell lines: two of seven colorectal cell lines (COLO205 and HCC2998)
Protocol: as §1
Acetalax and bisacodyl activities against a number of NCI-60 cell lines were obtained.
NCI-60 drug activity, molecular profiling, and annotation data was obtained from CellMiner (Database Version 2.1). […] Detailed information about CellMiner data preparation is publically available for example, in Reinhold, W. C. et al., Cancer Res. 72:3499-3511 (2012), Reinhold, W. C. et al., Cancer Res. 77:601-612 (2017), Abaan, O. D. et al., Cancer Res. 73:4372-4382 (2013), and Varma, S. et al., PloS One 9: e92047 (2014), as well as being documented within CellMiner.
COMPOUND ACTIVITY. Compound activity is indicated as a standardized, ‘z-score’ value derived from measurement of the cell line-specific 50% growth-inhibitory (GIS0) concentration using the sulforhodamine B total protein cytotoxicity assay generated by the Developmental Therapeutics Program (dtp.cancer.gov). In particular, for each compound, the mean and standard deviation of −log 10 [molar GI50] values over the NCI-60 lines are used to center and scale the data.

Row | Compound | Activity compared with the oncology drugs tested (GDSC cell line panel) | Activity (Z score) against breast cancer cell lines (NCI-60 cell lines) | Anticancer activity compared with all available (~178) FDA-approved drugs (NCI-60 cell lines) | Activity (Z score) pattern against NCI-60 cell lines (NCI-60 cell lines) | Activity (Z score) against ovarian cancer cell lines (NCI-60 cell lines) | Effectiveness compared with 13 approved breast cancer drugs (NCI-60 cell lines) | Activity (Z score) against colorectal cell lines (NCI-60 cell lines)
1 | CC(=O)Oc1ccc(C(c2ccc(OC(C)=O)cc2)c2ccccn2)cc1 [Bisacodyl] | more active than any of the oncology drugs | robust activity | superior anticancer activity | strong efficacy | robust activity | more effective | robust activity
2 | CC(=O)Oc1ccc(C2(c3ccc(OC(C)=O)cc3)C(=O)Nc3ccccc32)cc1 [Oxyphenisatin acetate (Acetalax), Oxyphenisatin acetate] | more active than any of the oncology drugs | robust activity | superior anticancer activity | strong efficacy | robust activity | more effective | robust activity
